{"source": "patent US10294202B2", "about": "“Pyrrolidinones as herbicides” (FMC Corporation, priority 2013, dated 2019)", "key": {"nutsedge, yellow": {"test_system": "nutsedge, yellow", "assay": "Test C pre-/postemergence herbicide test", "assay_type": "in vivo, Cyperus esculentus", "settings": "Preemergence; for Plant response rating, Nutsedge, Yellow: scale 0 to 100; for Plant response rating (scale of 0 to 100), Nutsedge, Yellow: 250 g ai/ha", "in_short": "(§1)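 Visual rating, 0 (no effect) to 100 (complete control), versus untreated controls after 13 to 15 days in the greenhouse. Pre: seeds in loam/sand, sprayed at planting. Post: 1- to 4-leaf plants (2 to 18 cm) in peat-based mix. Compounds in non-phytotoxic solvent plus surfactant.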"}, "pigweed": {"test_system": "pigweed", "assay": "Test A pre-/postemergence herbicide test", "assay_type": "in vivo, Amaranthus retroflexus", "in_short": "(§2)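 Seeds sown in loam soil/sand blend received a preemergence directed soil spray of test chemical in non-phytotoxic solvent with surfactant; postemergence plants (2–10 cm, one- to two-leaf stage) were sprayed with the same formulation. After about 10 days in greenhouse, injury was rated visually versus untreated controls, 0 (no effect) to 100 (complete control).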"}, "ryegrass, Italian": {"test_system": "ryegrass, Italian", "assay": "Test C pre-/postemergence herbicide test", "assay_type": "in vivo, Lolium multiflorum", "settings": "Preemergence; for Ryegrass, Italian plant response rating: 62 g ai/ha, scale 0 to 100 (0 no effect, 100 complete control); for Plant response rating, Ryegrass, Italian: scale 0 to 100", "in_short": "as §1"}, "sedge, umbrella": {"test_system": "sedge, umbrella", "assay": "Test B flooded paddy test", "assay_type": "in vivo, Cyperus difformis", "settings": "500 g ai/ha, Flood; scale of 0 to 100 where 0 is no effect and 100 is complete control", "in_short": "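2-leaf plants; flood 3 cm over soil; compound into paddy water; depth held. Greenhouse 13–15 d. Visual rating vs controls, 0 (no effect) to 100 (complete control); dash = not tested.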"}, "blackgrass": {"test_system": "blackgrass", "assay": "Test C pre-/postemergence herbicide test", "assay_type": "in vivo, Alopecurus myosuroides", "settings": "Preemergence; for Plant response rating, Blackgrass: scale 0 to 100; for Plant response rating (scale of 0 to 100), Blackgrass: 250 g ai/ha", "in_short": "as §1"}, "crabgrass, large": {"test_system": "crabgrass, large", "assay": "Test C pre-/postemergence herbicide test", "assay_type": "in vivo, Digitaria sanguinalis", "settings": "Preemergence; for Plant response rating, Crabgrass, Large: scale 0 to 100; for Plant response rating (scale of 0 to 100), Crabgrass, Large: 250 g ai/ha", "in_short": "as §1"}, "ragweed": {"test_system": "ragweed", "assay": "Test C pre-/postemergence herbicide test", "assay_type": "in vivo, Ambrosia elatior", "settings": "Preemergence; for Ragweed plant response rating: 62 g ai/ha, scale 0 to 100 (0 no effect, 100 complete control); for Plant response rating, Ragweed: scale 0 to 100", "in_short": "as §1"}, "johnsongrass": {"test_system": "johnsongrass", "assay": "Test C pre-/postemergence herbicide test", "assay_type": "in vivo, Sorghum halepense", "settings": "Preemergence; for Plant response rating, Johnsongrass: scale 0 to 100; for Plant response rating (scale of 0 to 100), Johnsongrass: 250 g ai/ha", "in_short": "as §1"}, "giant foxtail": {"test_system": "giant foxtail", "assay": "Test A pre-/postemergence herbicide test", "assay_type": "in vivo, Setaria faberii", "in_short": "as §2"}, "wheat": {"test_system": "wheat", "assay": "Test A pre-/postemergence herbicide test", "assay_type": "in vivo, Triticum aestivum", "settings": "Postemergence", "in_short": "as §2"}, "foxtail, giant": {"test_system": "foxtail, giant", "assay": "Test C pre-/postemergence herbicide test", "assay_type": "in vivo, Setaria faberii", "settings": "Preemergence; for Plant response rating, Foxtail, Giant: scale 0 to 100; for Plant response rating (scale of 0 to 100), Foxtail, Giant: 250 g ai/ha", "in_short": "as §1"}, "[1]": {"settings": "31 g ai/ha, scale 0 to 100, 0 is no effect and 100 is complete control"}, "[2]": {"settings": "62 g ai/ha, scale 0 to 100 (0 no effect, 100 complete control)"}, "[3]": {"settings": "Postemergence, 125 g ai/ha, visual rating on 0 to 100 scale (0 no effect, 100 complete control), approx. 10 days"}, "[4]": {"settings": "Postemergence, 500 g ai/ha, 0 to 100 scale (0 no effect, 100 complete control)"}, "[5]": {"settings": "Preemergence, 125 g ai/ha, 0 to 100 scale where 0 is no effect and 100 is complete control"}, "[6]": {"settings": "Preemergence, 500 g ai/ha, visual rating on 0 to 100 scale (0 no effect, 100 complete control)"}, "[7]": {"settings": "125 g ai/ha, visual rating on 0 to 100 scale (0 no effect, 100 complete control), approx. 10 days"}}}
{"smiles": "CC(C)c1cccc(C2CNC(=O)C2C(=O)Nc2cccc(F)c2F)c1", "note": "(stereo not shown) [Compound 319]", "values": [{"measurement": "Nutsedge, Yellow plant response rating", "setting": "nutsedge, yellow; [1]", "value": 0}, {"measurement": "Nutsedge, Yellow plant response rating", "setting": "nutsedge, yellow; [2]", "value": 0}, {"measurement": "Plant response rating, Nutsedge, Yellow", "setting": "nutsedge, yellow; 125 g ai/ha", "value": 0}, {"measurement": "Plant response rating (scale of 0 to 100), Nutsedge, Yellow", "setting": "nutsedge, yellow", "value": 30}, {"measurement": "Plant response rating, Pigweed", "setting": "pigweed; [3]", "value": 0}, {"measurement": "Plant response rating, Pigweed", "setting": "pigweed; [4]", "value": 20}, {"measurement": "Plant response rating, Pigweed", "setting": "pigweed; [5]", "value": 0}, {"measurement": "Pigweed plant response rating", "setting": "pigweed; [6]", "value": 20}, {"measurement": "Ryegrass, Italian plant response rating", "setting": "ryegrass, Italian", "value": 10}, {"measurement": "Plant response rating, Ryegrass, Italian", "setting": "ryegrass, Italian; 125 g ai/ha", "value": 20}, {"measurement": "Plant response rating, Sedge, Umbrella", "setting": "sedge, umbrella", "value": 0}, {"measurement": "Blackgrass plant response rating", "setting": "blackgrass; [1]", "value": 40}, {"measurement": "Blackgrass plant response rating", "setting": "blackgrass; [2]", "value": 0}, {"measurement": "Plant response rating, Blackgrass", "setting": "blackgrass; 125 g ai/ha", "value": 30}, {"measurement": "Plant response rating (scale of 0 to 100), Blackgrass", "setting": "blackgrass", "value": 80}, {"measurement": "Crabgrass, Large plant response rating", "setting": "crabgrass, large; [1]", "value": 95}, {"measurement": "Crabgrass, Large plant response rating", "setting": "crabgrass, large; [2]", "value": 98}, {"measurement": "Plant response rating, Crabgrass, Large", "setting": "crabgrass, large; 125 g ai/ha", "value": 95}, {"measurement": "Plant response rating (scale of 0 to 100), Crabgrass, Large", "setting": "crabgrass, large", "value": 98}, {"measurement": "Ragweed plant response rating", "setting": "ragweed", "value": 15}, {"measurement": "Plant response rating, Ragweed", "setting": "ragweed; 125 g ai/ha", "value": 40}, {"measurement": "Johnsongrass plant response rating", "setting": "johnsongrass; [1]", "value": 40}, {"measurement": "Johnsongrass plant response rating", "setting": "johnsongrass; [2]", "value": 55}, {"measurement": "Plant response rating, Johnsongrass", "setting": "johnsongrass; 125 g ai/ha", "value": 65}, {"measurement": "Plant response rating (scale of 0 to 100), Johnsongrass", "setting": "johnsongrass", "value": 75}, {"measurement": "Plant response rating, Foxtail, Giant", "setting": "giant foxtail; [3]", "value": 50}, {"measurement": "Plant response rating, Foxtail, Giant", "setting": "giant foxtail; [4]", "value": 90}, {"measurement": "Plant response rating, Foxtail, Giant", "setting": "giant foxtail; [5]", "value": 90}, {"measurement": "Foxtail, Giant plant response rating", "setting": "giant foxtail; [6]", "value": 90}, {"measurement": "Plant response rating, Wheat", "setting": "wheat; [7]", "value": 20}, {"measurement": "Plant response rating, Wheat", "setting": "wheat; 500 g ai/ha, 0 to 100 scale (0 no effect, 100 complete control)", "value": 50}, {"measurement": "Foxtail, Giant plant response rating", "setting": "foxtail, giant; [1]", "value": 70}, {"measurement": "Foxtail, Giant plant response rating", "setting": "foxtail, giant; [2]", "value": 85}, {"measurement": "Plant response rating, Foxtail, Giant", "setting": "foxtail, giant; 125 g ai/ha", "value": 95}, {"measurement": "Plant response rating (scale of 0 to 100), Foxtail, Giant", "setting": "foxtail, giant", "value": 95}]}
{"smiles": "O=C1NCC(c2ccc(OC(F)F)cc2)C1C(=O)Nc1cccc(F)c1F", "note": "(racemic) [Compound 350]", "values": [{"measurement": "Nutsedge, Yellow plant response rating", "setting": "nutsedge, yellow; [2]", "value": 0}, {"measurement": "Plant response rating, Nutsedge, Yellow", "setting": "nutsedge, yellow; 125 g ai/ha", "value": 0}, {"measurement": "Plant response rating (scale of 0 to 100), Nutsedge, Yellow", "setting": "nutsedge, yellow", "value": 0}, {"measurement": "Plant response rating, Nutsedge, Yellow", "setting": "nutsedge, yellow; 31 g ai/ha", "value": 0}, {"measurement": "Plant response rating, Pigweed", "setting": "pigweed; [3]", "value": 20}, {"measurement": "Plant response rating, Pigweed", "setting": "pigweed; [5]", "value": 50}, {"measurement": "Pigweed plant response rating", "setting": "pigweed; [6]", "value": 80}, {"measurement": "Ryegrass, Italian plant response rating", "setting": "ryegrass, Italian", "value": 0}, {"measurement": "Plant response rating, Ryegrass, Italian", "setting": "ryegrass, Italian; 125 g ai/ha", "value": 5}, {"measurement": "Plant response rating, Ryegrass, Italian", "setting": "ryegrass, Italian; 31 g ai/ha", "value": 0}, {"measurement": "Plant response rating, Sedge, Umbrella", "setting": "sedge, umbrella", "value": 0}, {"measurement": "Blackgrass plant response rating", "setting": "blackgrass; [2]", "value": 0}, {"measurement": "Plant response rating, Blackgrass", "setting": "blackgrass; 125 g ai/ha", "value": 50}, {"measurement": "Plant response rating (scale of 0 to 100), Blackgrass", "setting": "blackgrass", "value": 55}, {"measurement": "Plant response rating, Blackgrass", "setting": "blackgrass; 31 g ai/ha", "value": 0}, {"measurement": "Crabgrass, Large plant response rating", "setting": "crabgrass, large; [2]", "value": 90}, {"measurement": "Plant response rating, Crabgrass, Large", "setting": "crabgrass, large; 125 g ai/ha", "value": 90}, {"measurement": "Plant response rating (scale of 0 to 100), Crabgrass, Large", "setting": "crabgrass, large", "value": 90}, {"measurement": "Plant response rating, Crabgrass, Large", "setting": "crabgrass, large; 31 g ai/ha", "value": 90}, {"measurement": "Ragweed plant response rating", "setting": "ragweed", "value": 0}, {"measurement": "Plant response rating, Ragweed", "setting": "ragweed; 125 g ai/ha", "value": 5}, {"measurement": "Plant response rating, Ragweed", "setting": "ragweed; 31 g ai/ha", "value": 0}, {"measurement": "Johnsongrass plant response rating", "setting": "johnsongrass; [2]", "value": 0}, {"measurement": "Plant response rating, Johnsongrass", "setting": "johnsongrass; 125 g ai/ha", "value": 0}, {"measurement": "Plant response rating (scale of 0 to 100), Johnsongrass", "setting": "johnsongrass", "value": 30}, {"measurement": "Plant response rating, Johnsongrass", "setting": "johnsongrass; 31 g ai/ha", "value": 0}, {"measurement": "Plant response rating, Foxtail, Giant", "setting": "giant foxtail; [3]", "value": 80}, {"measurement": "Plant response rating, Foxtail, Giant", "setting": "giant foxtail; [4]", "value": 90}, {"measurement": "Plant response rating, Foxtail, Giant", "setting": "giant foxtail; [5]", "value": 90}, {"measurement": "Foxtail, Giant plant response rating", "setting": "giant foxtail; [6]", "value": 90}, {"measurement": "Plant response rating, Wheat", "setting": "wheat; [7]", "value": 20}, {"measurement": "Foxtail, Giant plant response rating", "setting": "foxtail, giant; [2]", "value": 90}, {"measurement": "Plant response rating, Foxtail, Giant", "setting": "foxtail, giant; 125 g ai/ha", "value": 90}, {"measurement": "Plant response rating (scale of 0 to 100), Foxtail, Giant", "setting": "foxtail, giant", "value": 90}, {"measurement": "Plant response rating, Foxtail, Giant", "setting": "foxtail, giant; 31 g ai/ha", "value": 85}]}
